Data on twelve cell lines can be found in the supplement of paper PMC10307832.

Test in all cases: relative viability (nuclei count vs DMSO), 5 days (fraction); higher = more cells survive
Compound in test [1]: Cc1cnc(Nc2ccc(OCCN3CCCC3)cc2)nc1Nc1cccc(S(=O)(=O)NC(C)(C)C)c1 [Fedratinib] + N=C(N)NC(=N)NCCc1ccccc1 [Phenformin] (partner 250 µM)
In short, it runs like this:
(§1)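 Nuclei were stained with Hoechst during a one-step fixation (final 0.05% Triton X-100, 1% formaldehyde, 1 ug/ml Hoechst) carried out 5 days after dosing, then counted on 4× images. The cells, lung cancer lines in 1536-well plates, had been dosed by pin tool the day after seeding with one drug alone or a fixed anchor-drug dose plus five library-drug doses (not always all listed) in √10 steps. Relative viability is the nuclei count in treated wells divided by that in vehicle wells, and each value is the median of duplicate plates.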

Compound in test [2]: COC1=CC=C(C=C1)COC2=C(C=C(C=C2)CC3=CN=C(N=C3N)N)OC [GW-2580] + Cc1cc(Nc2cc(N3CCN(C)CC3)nc(Sc3ccc(NC(=O)C4CC4)cc3)n2)n[nH]1 [Tozasertib] (partner 0.1 µM)
The method in brief:
as §1

Compound in test [3]: Cc1cnc(Nc2ccc(OCCN3CCCC3)cc2)nc1Nc1cccc(S(=O)(=O)NC(C)(C)C)c1 [Fedratinib] + CC(=O)c1c(C)c2cnc(Nc3ccc(N4CCNCC4)cn3)nc2n(C2CCCC2)c1=O [Palbociclib] (partner 0.5 µM)
In short, it runs like this:
as §1

Compound in test [4]: Cc1cnc(Nc2ccc(OCCN3CCCC3)cc2)nc1Nc1cccc(S(=O)(=O)NC(C)(C)C)c1 [Fedratinib] + Cc1nc(NC(=O)N2CCC[C@H]2C(N)=O)sc1-c1ccnc(C(C)(C)C(F)(F)F)c1 [Alpelisib] (partner 2 µM)
In short, it runs like this: as §1

Compound in test [5]: Cc1cnc(Nc2ccc(OCCN3CCCC3)cc2)nc1Nc1cccc(S(=O)(=O)NC(C)(C)C)c1 [Fedratinib] + CCNC(=O)c1noc(-c2cc(C(C)C)c(O)cc2O)c1-c1ccc(CN2CCOCC2)cc1 [Luminespib] (partner 0.01 µM)
The method in brief: as §1

Compound in test [6]: COC1=CC=C(C=C1)COC2=C(C=C(C=C2)CC3=CN=C(N=C3N)N)OC [GW-2580] + CS(=O)(=O)CCNCc1ccc(-c2ccc3ncnc(Nc4ccc(OCc5cccc(F)c5)c(Cl)c4)c3c2)o1 [Lapatinib] (partner 2 µM)
In short, it runs like this:
as §1

Consider LCLC-103H, for which the relative viability came out at 0.32 in test [1] (first compound 0.1 µM); 0.284 in test [1] (first compound 0.3162 µM); 0.363 in test [1] (first compound 1 µM); 0.555 in test [2] (first compound 0.08 µM); 0.432 in test [2] (first compound 0.8 µM); 0.484 in test [2] (first compound 2.53 µM). The relative viability stood at 0.396 in test [2] (first compound 8 µM); 0.479 in test [3] (first compound 0.1 µM); 0.502 in test [3] (first compound 0.3162 µM); 0.477 in test [3] (first compound 1 µM); 1.07 in test [4] (first compound 0.1 µM); 0.816 in test [4] (first compound 0.3162 µM). The relative viability in test [4] (first compound 1 µM) stood at 0.938; in test [5] (first compound 0.1 µM) it was 0.9; in test [5] (first compound 0.3162 µM) it was 0.946; in test [5] (first compound 1 µM), 0.937.
Turning to NCI-H1650, the relative viability in test [1] (first compound 0.3162 µM) came to 0.495; in test [1] (first compound 1 µM), 0.234; in test [2] (first compound 0.08 µM) it was 0.455; in test [2] (first compound 0.8 µM), 0.543; in test [2] (first compound 2.53 µM), 0.452; in test [2] (first compound 8 µM), 0.363. Moreover, the relative viability in test [3] (first compound 0.1 µM) amounted to 0.299; in test [3] (first compound 0.3162 µM) it was 0.408; in test [3] (first compound 1 µM), 0.288; in test [6] (first compound 0.08 µM), 0.822; in test [6] (first compound 0.8 µM) it was 0.895; in test [6] (first compound 2.53 µM), 0.677. Moreover, the relative viability stood at 0.781 in test [6] (first compound 8 µM), 0.186 in test [5] (first compound 0.3162 µM) and 0.2 in test [5] (first compound 1 µM).
Take ChaGo-K-1: the relative viability came out at 0.436 in test [1] (first compound 0.1 µM); 0.432 in test [1] (first compound 0.3162 µM); 0.445 in test [1] (first compound 1 µM); 0.257 in test [2] (first compound 0.08 µM); 0.224 in test [2] (first compound 0.8 µM); 0.233 in test [2] (first compound 2.53 µM). For the same cell line, the relative viability is 0.234 in test [2] (first compound 8 µM); 0.966 in test [3] (first compound 0.1 µM); 0.814 in test [3] (first compound 0.3162 µM); 0.961 in test [3] (first compound 1 µM); 0.61 in test [5] (first compound 0.1 µM); 0.548 in test [5] (first compound 0.3162 µM). Further, the relative viability in test [5] (first compound 1 µM) is 0.561.
Take SW 900: the relative viability in test [1] (first compound 0.1 µM) was 0.445; in test [1] (first compound 0.3162 µM) it was 0.672; in test [1] (first compound 1 µM), 0.327; in test [2] (first compound 0.08 µM) it was 0.572; in test [2] (first compound 0.8 µM), 0.559; in test [2] (first compound 2.53 µM) it was 0.6. Further, the relative viability worked out at 0.559 in test [2] (first compound 8 µM); 0.547 in test [3] (first compound 0.1 µM); 0.514 in test [3] (first compound 0.3162 µM); 0.47 in test [3] (first compound 1 µM); 0.147 in test [5] (first compound 0.1 µM); 0.171 in test [5] (first compound 0.3162 µM). In addition, the relative viability in test [5] (first compound 1 µM) was 0.167.
Regarding NCI-H596, the relative viability came to 0.691 in test [1] (first compound 0.1 µM); 0.895 in test [1] (first compound 0.3162 µM); 0.859 in test [1] (first compound 1 µM); 0.956 in test [2] (first compound 0.08 µM); 1.02 in test [2] (first compound 0.8 µM); 0.891 in test [2] (first compound 2.53 µM). The relative viability was 0.919 in test [2] (first compound 8 µM); 0.459 in test [4] (first compound 0.1 µM); 0.576 in test [4] (first compound 0.3162 µM); 0.506 in test [4] (first compound 1 µM); 1.25 in test [6] (first compound 0.08 µM); 1.2 in test [6] (first compound 0.8 µM). Also, the relative viability in test [6] (first compound 2.53 µM) turned out to be 0.996; in test [6] (first compound 8 µM), 1.2; in test [5] (first compound 0.1 µM) it was 0.962; in test [5] (first compound 0.3162 µM), 1.2; in test [5] (first compound 1 µM), 0.875.
Consider NCI-H1563, for which the relative viability in test [1] (first compound 0.1 µM) amounted to 0.658; in test [1] (first compound 0.3162 µM), 0.693; in test [1] (first compound 1 µM), 0.637; in test [4] (first compound 0.1 µM) it was 0.853; in test [4] (first compound 0.3162 µM), 0.909; in test [4] (first compound 1 µM), 0.916. Besides, the relative viability in test [6] (first compound 0.08 µM) was 0.895; in test [6] (first compound 0.8 µM) it was 0.857; in test [6] (first compound 2.53 µM), 0.831; in test [6] (first compound 8 µM), 0.863; in test [5] (first compound 0.1 µM), 0.472; in test [5] (first compound 0.3162 µM), 0.504. For the same cell line, in test [5] (first compound 1 µM), the relative viability amounted to 0.516.
A549: the relative viability in test [1] (first compound 0.3162 µM) was found to be 0.169; in test [1] (first compound 1 µM) it was 0.165; in test [4] (first compound 0.1 µM), 0.74; in test [4] (first compound 0.3162 µM), 0.691; in test [4] (first compound 1 µM) it was 0.622; in test [6] (first compound 0.08 µM), 1.11. For the same cell line, the relative viability was determined as 1.04 in test [6] (first compound 0.8 µM), 0.89 in test [6] (first compound 2.53 µM) and 0.869 in test [6] (first compound 8 µM).
With NCI-H2342, the relative viability in test [1] (first compound 0.1 µM) turned out to be 0.674; in test [1] (first compound 0.3162 µM) it was 0.537; in test [1] (first compound 1 µM) it was 0.634; in test [2] (first compound 0.08 µM), 0.557; in test [2] (first compound 0.8 µM), 0.498; in test [2] (first compound 2.53 µM), 0.516. The relative viability was determined as 0.418 in test [2] (first compound 8 µM); 0.531 in test [3] (first compound 0.1 µM); 0.606 in test [3] (first compound 0.3162 µM); 0.593 in test [3] (first compound 1 µM); 0.695 in test [5] (first compound 0.1 µM); 0.874 in test [5] (first compound 0.3162 µM). Further, the relative viability in test [5] (first compound 1 µM) was found to be 0.837.
As to NCI-H1623, the relative viability in test [1] (first compound 0.1 µM) came out at 0.474; in test [1] (first compound 0.3162 µM), 0.59; in test [1] (first compound 1 µM), 0.551; in test [2] (first compound 0.08 µM) it was 0.631; in test [2] (first compound 0.8 µM), 0.416; in test [2] (first compound 2.53 µM) it was 0.594. Besides, the relative viability in test [2] (first compound 8 µM) was determined as 0.486; in test [5] (first compound 0.1 µM) it was 0.703; in test [5] (first compound 0.3162 µM) it was 0.485; in test [5] (first compound 1 µM), 0.505.
For the cell line NCI-H522, the relative viability worked out at 0.588 in test [1] (first compound 0.1 µM); 0.585 in test [1] (first compound 0.3162 µM); 0.661 in test [1] (first compound 1 µM); 0.551 in test [2] (first compound 0.08 µM); 0.579 in test [2] (first compound 0.8 µM); 0.318 in test [2] (first compound 2.53 µM). In addition, the relative viability came to 0.541 in test [2] (first compound 8 µM); 0.847 in test [3] (first compound 0.1 µM); 0.893 in test [3] (first compound 0.3162 µM); 1.03 in test [3] (first compound 1 µM); 1.14 in test [5] (first compound 0.1 µM); 1.21 in test [5] (first compound 0.3162 µM). Further, in test [5] (first compound 1 µM), the relative viability was 1.14.
IA-LM: the relative viability in test [4] (first compound 0.1 µM) turned out to be 0.563; in test [4] (first compound 0.3162 µM), 0.758; in test [4] (first compound 1 µM), 0.658; in test [6] (first compound 0.08 µM), 0.997; in test [6] (first compound 0.8 µM), 0.862; in test [6] (first compound 2.53 µM), 0.572. For the same cell line, the relative viability in test [6] (first compound 8 µM) was 0.876.
On to EBC-1, for which the relative viability in test [4] (first compound 0.1 µM) was found to be 0.743; in test [4] (first compound 0.3162 µM) it was 0.808; in test [4] (first compound 1 µM), 0.592; in test [6] (first compound 0.08 µM), 0.193; in test [6] (first compound 0.8 µM) it was 0.219; in test [6] (first compound 2.53 µM), 0.214. The relative viability in test [6] (first compound 8 µM) was 0.21.
